Legend:
[1] = molecular target: T1, CDK2-CYCLINA (Homo sapiens, UniProt P24941); experiment: CDK inhibition assay (microfluidic LabChip, IC50 format); format: biochemical; conditions: Table 4a; read-out: CDK2 CyclinA IC50
T1 construct: purchased Millipore

[2] = molecular target: T2, CDK6-CYCLIND3 (Homo sapiens, UniProt Q00534); experiment: as above; format: biochemical; conditions: Table 4a; read-out: CDK6 CyclinD3 IC50
T2 construct: purchased Carna

[3] = molecular target: CDK7 CyclinH (Homo sapiens, UniProt P50613); experiment: as above; format: biochemical; conditions: Table 4a
Sequence of CDK7 CyclinH (P50613 whole entry): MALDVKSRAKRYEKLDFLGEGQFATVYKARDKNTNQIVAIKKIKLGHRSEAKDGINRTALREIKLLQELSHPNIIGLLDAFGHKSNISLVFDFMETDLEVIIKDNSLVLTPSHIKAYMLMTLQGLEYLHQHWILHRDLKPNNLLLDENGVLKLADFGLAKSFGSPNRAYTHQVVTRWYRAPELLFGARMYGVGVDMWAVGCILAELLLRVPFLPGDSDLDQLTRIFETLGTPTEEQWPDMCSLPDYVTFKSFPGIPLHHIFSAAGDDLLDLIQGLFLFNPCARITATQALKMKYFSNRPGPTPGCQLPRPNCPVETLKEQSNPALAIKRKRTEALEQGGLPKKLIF
Sequence of CDK7 CyclinH (P51946 whole entry partner): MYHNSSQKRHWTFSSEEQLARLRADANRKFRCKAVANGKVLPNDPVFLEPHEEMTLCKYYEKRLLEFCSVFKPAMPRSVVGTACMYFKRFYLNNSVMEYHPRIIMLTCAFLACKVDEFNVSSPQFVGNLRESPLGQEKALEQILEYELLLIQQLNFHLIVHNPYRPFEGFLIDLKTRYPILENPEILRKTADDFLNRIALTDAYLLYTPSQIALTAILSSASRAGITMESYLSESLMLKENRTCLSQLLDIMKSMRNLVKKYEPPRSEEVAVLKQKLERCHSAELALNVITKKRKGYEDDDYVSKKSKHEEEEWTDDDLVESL
Sequence of CDK7 CyclinH (P51948 whole entry partner): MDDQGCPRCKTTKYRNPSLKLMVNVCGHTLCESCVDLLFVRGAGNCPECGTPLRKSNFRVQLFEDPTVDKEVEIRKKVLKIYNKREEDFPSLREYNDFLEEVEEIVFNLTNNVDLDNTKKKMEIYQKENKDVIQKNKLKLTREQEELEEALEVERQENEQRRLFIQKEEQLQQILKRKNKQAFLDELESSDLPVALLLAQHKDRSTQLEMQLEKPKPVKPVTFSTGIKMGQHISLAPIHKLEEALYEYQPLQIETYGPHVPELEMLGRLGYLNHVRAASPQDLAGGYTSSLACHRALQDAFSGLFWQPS

[4] = molecular target: T3, CDK9-CYCLINT1 (Homo sapiens, UniProt P50750); experiment: as above; format: biochemical; conditions: Table 4a; read-out: CDK9 CyclinT1 IC50
T3 construct: purchased Carna
T3 sequence (P50750 whole entry): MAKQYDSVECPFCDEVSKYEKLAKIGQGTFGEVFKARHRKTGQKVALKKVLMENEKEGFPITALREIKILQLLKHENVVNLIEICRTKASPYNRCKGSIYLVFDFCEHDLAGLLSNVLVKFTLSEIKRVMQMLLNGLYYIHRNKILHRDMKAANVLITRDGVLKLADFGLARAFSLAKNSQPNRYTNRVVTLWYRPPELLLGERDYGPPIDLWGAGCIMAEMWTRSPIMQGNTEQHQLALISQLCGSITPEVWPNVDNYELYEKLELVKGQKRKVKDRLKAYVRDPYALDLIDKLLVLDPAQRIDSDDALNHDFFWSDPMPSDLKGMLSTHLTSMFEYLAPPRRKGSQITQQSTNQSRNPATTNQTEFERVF
T3 sequence (O60563 whole entry partner): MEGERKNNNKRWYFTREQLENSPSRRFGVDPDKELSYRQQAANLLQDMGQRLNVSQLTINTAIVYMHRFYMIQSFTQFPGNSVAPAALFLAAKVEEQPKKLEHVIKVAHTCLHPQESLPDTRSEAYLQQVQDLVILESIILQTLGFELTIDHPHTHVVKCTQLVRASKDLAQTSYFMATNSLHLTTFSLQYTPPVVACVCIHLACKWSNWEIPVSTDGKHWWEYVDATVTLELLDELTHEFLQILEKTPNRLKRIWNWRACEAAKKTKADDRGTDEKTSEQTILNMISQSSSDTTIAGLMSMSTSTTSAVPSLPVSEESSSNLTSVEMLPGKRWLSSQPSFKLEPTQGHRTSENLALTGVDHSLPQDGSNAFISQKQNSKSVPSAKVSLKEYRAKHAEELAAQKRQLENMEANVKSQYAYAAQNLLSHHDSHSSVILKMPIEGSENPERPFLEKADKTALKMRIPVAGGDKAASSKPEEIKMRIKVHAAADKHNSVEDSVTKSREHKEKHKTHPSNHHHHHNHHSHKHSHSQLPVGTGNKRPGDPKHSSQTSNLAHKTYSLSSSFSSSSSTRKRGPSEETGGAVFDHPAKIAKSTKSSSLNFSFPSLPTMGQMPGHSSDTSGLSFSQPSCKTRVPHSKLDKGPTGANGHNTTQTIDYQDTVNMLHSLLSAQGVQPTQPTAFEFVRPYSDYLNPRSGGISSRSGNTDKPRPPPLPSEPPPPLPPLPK

[5] = test system: CEXF HeLa; experiment: 2D cell proliferation assay (CellTiter-Blue); format: cell-based; conditions: Homo sapiens, 72 h, three days of treatment, read-out: abs. IC50
In short: (§1)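 Three-day 2D growth inhibition: cells seeded at 4,000-60,000/well, rested 24 h, then dosed with five full-log concentrations up to 100 μM. Metabolic conversion of CellTiter-Blue was measured fluorometrically. IC50 values come from 4-parameter sigmoidal fits of T/C% against untreated cells.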

[6] = test system: CXF COLO 205; experiment: 2D cell proliferation assay (CellTiter-Blue); format: cell-based; conditions: Homo sapiens, 72 h, three days of treatment, read-out: abs. IC50
In short: as §1

[7] = test system: CXF HCT-15; experiment: 2D cell proliferation assay (CellTiter-Blue); format: cell-based; conditions: Homo sapiens, 72 h, three days of treatment, read-out: abs. IC50
In short: as §1

[8] = test system: GXA MKN45; experiment: 2D cell proliferation assay (CellTiter-Blue); format: cell-based; conditions: Homo sapiens, MKN-45, 72 h, three days of treatment, read-out: abs. IC50
In short: as §1

[9] = test system: LIXAH HLE; experiment: 2D cell proliferation assay (CellTiter-Blue); format: cell-based; conditions: 72 h, three days of treatment, read-out: abs. IC50
In short: as §1

[10] = test system: LIXAH SNU-398; experiment: 2D cell proliferation assay (CellTiter-Blue); format: cell-based; conditions: Homo sapiens, 72 h, three days of treatment, read-out: abs. IC50
In short: as §1

[11] = test system: LXFA A549; experiment: 2D cell proliferation assay (CellTiter-Blue); format: cell-based; conditions: Homo sapiens, 72 h, three days of treatment, read-out: abs. IC50
In short: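 Cells at 4,000-60,000/well recovered 24 h, then five full-log concentrations up to 100 μM in duplicate for three days at 37 °C. CellTiter-Blue fluorescence (ex 570/em 600 nm) after up to 4 h; T/C% vs untreated controls, relative IC50 and absolute IC50/IC70 by 4-parameter fit.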

[12] = test system: LYXFNH Daudi; experiment: 2D cell proliferation assay (CellTiter-Blue); format: cell-based; conditions: Homo sapiens, 72 h, three days of treatment, read-out: abs. IC50
In short: as §1

[13] = test system: LYXFNH U-937; experiment: 2D cell proliferation assay (CellTiter-Blue); format: cell-based; conditions: Homo sapiens, 72 h, three days of treatment, read-out: abs. IC50
In short: as §1

[14] = test system: MEXF A2058; experiment: 2D cell proliferation assay (CellTiter-Blue); format: cell-based; conditions: Homo sapiens, 72 h, three days of treatment, read-out: abs. IC50
In short: as §1

[15] = test system: MMXF U-266; experiment: 2D cell proliferation assay (CellTiter-Blue); format: cell-based; conditions: Homo sapiens, 72 h, three days of treatment, read-out: abs. IC50
In short: as §1

[16] = test system: OVXF SK-OV-3; experiment: 2D cell proliferation assay (CellTiter-Blue); format: cell-based; conditions: Homo sapiens, 72 h, three days of treatment, read-out: abs. IC50
In short: as §1

[17] = test system: PAXF MIA-Pa-Ca-2; experiment: 2D cell proliferation assay (CellTiter-Blue); format: cell-based; conditions: Homo sapiens, MIA PaCa-2, 72 h, three days of treatment, read-out: abs. IC50
In short: as §1

[18] = test system: PRXF LNCaP; experiment: 2D cell proliferation assay (CellTiter-Blue); format: cell-based; conditions: Homo sapiens, 72 h, three days of treatment, read-out: abs. IC50
In short: as §1

[19] = test system: all cell lines tested; experiment: 2D cell proliferation assay, geometric mean over the cell line panel; format: cell-based; conditions: Table 5 upper part; geometric mean over the 47-line panel; read-out: Geomean abs. IC50 value
In short: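 Cells plated at 4,000-60,000/well, 24 h recovery, then five full-log concentrations up to 100 μM in duplicate for three days at 37 °C. CellTiter-Blue fluorescence (ex 570/em 600 nm); 4-parameter fits give relative IC50, absolute IC50/IC70; geometric mean across lines, unresolved values set to tested range limits.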

[20] = molecular target: CDK4-CYCLIND1 (Homo sapiens, UniProt P11802); experiment: CDK inhibition assay (microfluidic LabChip, IC50 format); conditions: CDK4 CyclinD1 IC50, Table 4a; a second value in parentheses for some compounds
Sequence of CDK4-CYCLIND1 (P11802 whole entry): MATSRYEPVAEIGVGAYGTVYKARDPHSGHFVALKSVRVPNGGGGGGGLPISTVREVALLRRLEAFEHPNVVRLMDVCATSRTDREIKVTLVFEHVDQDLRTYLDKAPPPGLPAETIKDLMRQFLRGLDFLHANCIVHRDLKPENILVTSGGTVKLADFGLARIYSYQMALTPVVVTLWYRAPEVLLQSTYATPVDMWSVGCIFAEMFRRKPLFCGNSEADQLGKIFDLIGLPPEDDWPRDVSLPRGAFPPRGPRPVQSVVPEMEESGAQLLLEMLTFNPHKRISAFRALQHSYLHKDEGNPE
Sequence of CDK4-CYCLIND1 (P24385 whole entry partner): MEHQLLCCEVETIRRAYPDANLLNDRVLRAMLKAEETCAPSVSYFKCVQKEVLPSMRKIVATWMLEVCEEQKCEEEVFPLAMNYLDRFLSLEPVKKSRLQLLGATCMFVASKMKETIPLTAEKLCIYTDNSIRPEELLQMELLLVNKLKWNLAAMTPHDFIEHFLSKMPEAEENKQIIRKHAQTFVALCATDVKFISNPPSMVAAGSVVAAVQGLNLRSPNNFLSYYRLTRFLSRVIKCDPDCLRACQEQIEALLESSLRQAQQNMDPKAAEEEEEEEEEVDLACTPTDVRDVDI

[21] = test system: LEXFAL MOLT-4; experiment: 2D cell proliferation assay (CellTiter-Blue); format: cell-based; conditions: Homo sapiens, 72 h, three days of treatment, read-out: abs. IC50
In short: as §1

[22] = Pharmacokinetics after IV bolus; format: in vivo; conditions: rat, plasma; rats; IV bolus 30 mg/kg; N = 3
Experimental: (§2) Nonclinical pharmacokinetic (PK) parameters of lead CDK4/6/9 inhibitors were determined in an intravenous (IV) and oral study (p.o.) conducted in rats. Lead compounds were each administered as a single oral dose at 100 mg/kg or by IV bolus via the caudal vein at the dose of 30 mg/kg. Blood samples were collected at 0.25, 0.5, 1, 2, 4, 8, 12, and 24 hours post i.v. administration, and at 1, 2, 4, 8, 24 and 48 hours post oral administration. Plasma was processed for drug concentration analysis using a validated LCMS/MS method, and PK parameters were calculated by using WinNonlin.

[23] = Pharmacokinetics after oral administration; format: in vivo; conditions: rat, plasma, rats
Experimental: as §2

[24] = oral administration 100 mg/kg, N = 3

T2 sequence (Q00534 whole entry): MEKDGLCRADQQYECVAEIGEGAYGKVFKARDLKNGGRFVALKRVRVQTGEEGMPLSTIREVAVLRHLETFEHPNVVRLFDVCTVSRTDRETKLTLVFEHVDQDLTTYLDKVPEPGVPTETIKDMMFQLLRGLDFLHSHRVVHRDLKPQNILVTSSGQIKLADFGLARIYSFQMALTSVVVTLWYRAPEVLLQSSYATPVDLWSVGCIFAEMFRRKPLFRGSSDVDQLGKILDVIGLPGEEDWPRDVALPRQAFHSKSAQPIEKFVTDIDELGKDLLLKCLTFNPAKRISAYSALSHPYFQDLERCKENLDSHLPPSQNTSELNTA
T2 sequence (P30281 whole entry partner): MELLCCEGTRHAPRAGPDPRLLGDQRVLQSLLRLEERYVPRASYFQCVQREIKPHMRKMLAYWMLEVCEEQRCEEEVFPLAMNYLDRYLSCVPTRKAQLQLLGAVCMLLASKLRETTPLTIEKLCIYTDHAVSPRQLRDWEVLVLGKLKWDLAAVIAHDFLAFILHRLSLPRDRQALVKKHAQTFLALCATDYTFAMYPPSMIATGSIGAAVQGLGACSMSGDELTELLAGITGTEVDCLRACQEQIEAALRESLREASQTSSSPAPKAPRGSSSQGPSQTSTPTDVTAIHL

| IC50 [1] | IC50 [2] | IC50 [3] | IC50 [4] | IC50 [5] | IC50 [6] | IC50 [7] | IC50 [8] | IC50 [10] | IC50 [11] | IC50 [13] | IC50 [16] | IC50 [17] | IC50 [18] | IC50 [20] | SMILES | IC50 [9] | IC50 [14] | IC50 [15] | IC50 [19] | also measured |
| --- | --- | --- | --- | --- | --- | --- | --- | --- | --- | --- | --- | --- | --- | --- | --- | --- | --- | --- | --- | --- |
| 0.273 µM | 0.00812 µM | 1.12 µM | 0.0248 µM | 1.57 µM | 0.577 µM | 2.05 µM | 3.12 µM | 0.251 µM | 3.41 µM | ≤ 0.01 µM | 8.26 µM | 6.3 µM | 0.349 µM | 0.00419 µM | O=C1NCC[C@@]12Cc1cnc(Nc3ccc(N4CCNCC4)cc3F)nc1N(C1CCCC1)C2=O [Example D146, (S)-8-cyclopentyl-2-((2-fluoro-4-(piperazin-1-yl)phenyl)amino)-5,8-dihydro-7H-spiro[pyrido[2,3-d]pyrimidine-6,3′-pyrrolidine]-2′,7-dione] | 0.928 µM | 1.53 µM | 4.55 µM | 1.24 µM | IC50 [12]: 0.162 µM |
| 0.0675 µM | 0.00215 µM | 0.321 µM | 0.00185 µM | 0.268 µM | 0.101 µM | 1.41 µM | 0.112 µM | 0.025 µM | 3.31 µM | ≤ 0.01 µM | 0.772 µM | 0.163 µM | 0.024 µM | 0.00127 µM | CN(C)CCOc1ccc(Nc2ncc3c(n2)N(C2CCCC2)C(=O)[C@]2(CCNC2=O)C3)cc1 [Example D179, (S)-8-cyclopentyl-2-((4-(2-(dimethylamino)ethoxy)phenyl)amino)-5,8-dihydro-7H-spiro[pyrido[2,3-d]pyrimidine-6,3′-pyrrolidine]-2′,7-dione] | 0.103 µM | 0.174 µM | 0.814 µM | 0.205 µM | IC50 [21]: 0.177 µM; Cmax [22]: 6200 ng/mL; clearance [22]: 38.3 mL/min/kg; half-life [22]: 2.26 h; bioavailability ([23]; oral 100 mg/kg versus IV 30 mg/kg, read-out: BIOAVAILABILITY F): 36.3%; AUC [23, 24]: 14200 ng·h/mL; Cmax [23, 24]: 3360 ng/mL; MRT [23, 24]: 2.99 h; half-life [23, 24]: 3.1 h |
| 2.14 µM | 0.00234 µM | 13.5 µM | 0.163 µM | 72.6 µM | 4.76 µM | 22.1 µM | 47.8 µM | 6.84 µM | 79.2 µM | ≤ 0.01 µM | 59.9 µM | 73.9 µM | 31.1 µM | 0.00205 µM | CC(C)N1CCN(c2ccc(Nc3ncc4c(n3)N(C3CCCC3)C(=O)[C@]3(CCNC3=O)C4)nc2)CC1 [Example D154, (S)-8-cyclopentyl-2-((5-(4-isopropylpiperazin-1-yl)pyridin-2-yl)amino)-5,8-dihydro-7H-spiro[pyrido[2,3-d]pyrimidine-6,3′-pyrrolidine]-2′,7-dione] | 21.5 µM | 14.5 µM | 78.5 µM | 17 µM |  |
| 0.127 µM | 0.00188 µM | 1.13 µM | 0.00425 µM | 36.9 µM | 6.22 µM | 29.5 µM | 47.3 µM | 0.608 µM | 69.9 µM | ≤ 0.01 µM | 76.7 µM | 65.9 µM | 20.8 µM | 0.00103 µM | CN(C)[C@H]1CCN(c2ccc(Nc3ncc4c(n3)N(C3CCCC3)C(=O)[C@]3(CCNC3=O)C4)nc2)C1 [Example D178, (S)-8-cyclopentyl-2-((5-((S)-3-(dimethylamino)pyrrolidin-1-yl)pyridin-2-yl)amino)-5,8-dihydro-7H-spiro[pyrido[2,3-d]pyrimidine-6,3′-pyrrolidine]-2′,7-dione] | 21.3 µM | 60.4 µM | 62.3 µM | 16.5 µM |  |
